The source of these data is patent US20110039874A1, “MONOACYLGLYCEROL LIPASE INHIBITORS FOR MODULATION OF CANNABINOID ACTIVITY” (Northeastern University, priority 2007, published 2011).

For the compound `O=S(=O)(F)CCCCOc1ccccc1` [Compound 17, 4-Phenoxybutylsulfonyl fluoride], the melting point (in general, the temperature of the solid-liquid transition) lay in the range of 74 to 76 °C.
The value for `O=C(CCCCCOc1ccccc1OCc1ccccc1)C(F)(F)F` [Compound 23.10, 1,1,1-Trifluoro-7-[2-(Benzyloxy)phenoxy]-2-heptanone] was 31 to 32 °C; that for `O=C(CCCOc1ccc(OCc2ccccc2)cc1)C(F)(F)F` [Compound 23.1, 1,1,1-Trifluoro-5-[4-(benzyloxy)phenoxy]-2-pentanone] was 59 to 61 °C; that for `Oc1cccc(OCCCC(O)(O)C(F)(F)F)c1` (hydrate or solvate) [Compound 24.5, 1,1,1-Trifluoro-2,2-dihydroxy-5-[3-(hydroxy)phenoxy]pentane] was 76 to 77 °C.
The value for `O=C(CCCCOc1ccccc1)C(F)(F)F` [Compound 23.12, 1,1,1-Trifluoro-6-phenoxy-2-hexanone] was 50 to 51 °C; that for `Cc1nnc(C(=O)CCCCCCOc2ccc(OCc3ccccc3)cc2)o1` [Compound 65.2, 7-(4-Benzyloxy-phenoxy)-1-(5-methyl-1,3,4-oxadiazol-2-yl)-heptan-1-one] was 118 to 120 °C.
The value for `O=C(CCCCOc1ccc(OCc2ccccc2)cc1)C(F)(F)F` [Compound 23.2, 1,1,1-Trifluoro-6-[4-(Benzyloxy)phenoxy]-2-hexanone] was 95.5 to 96 °C.
`O=S(=O)(F)CCCCCc1ccc(OCc2ccccc2)cc1` [Compound 13.4, 5-(4-Benzyloxy-phenyl)-pentanesulfonyl fluoride] gave a melting point of 66 to 68 °C.
In turn, `O=S(=O)(F)CCCCCCCc1ccc(O)cc1` [Compound 14.1, 7-(4-Hydroxy-phenyl)-heptanesulfonyl fluoride] showed a melting point of 47 to 51 °C.
Under `O=C(CCCCOc1ccccc1O)C(F)(F)F` [Compound 24.9, 1,1,1-Trifluoro-6-[2-(hydroxy)phenoxy]-2-hexanone] stands 51 to 52 °C.
Under `COS(=O)(=O)CCCCCCCc1ccc(OCc2ccccc2)cc1` [Compound 18, 7-(4-Benzyloxy-phenyl)-heptane-1-sulfonic acid methyl ester] stands 57 to 59 °C.
The value for `O=C(CCCCCOc1ccc(OCc2ccccc2)cc1)C(F)(F)F` [Compound 23.3, 1,1,1-Trifluoro-7-[4-(Benzyloxy)phenoxy]-2-heptanone] was 59 to 60 °C; that for `O=C(CCCCCCOc1ccc(OCc2ccccc2)cc1)C(F)(F)F` [Compound 23.4, 1,1,1-Trifluoro-8-[4-(Benzyloxy)phenoxy]-2-octanone] was 82 to 83 °C; that for `Cc1nnc(C(=O)CCCCCCOc2ccc(O)cc2)o1` [Compound 66, 7-(4-Hydroxy-phenoxy)-1-(5-methyl-1,3,4-oxadiazol-2-yl)-heptan-1-one] was 134 to 135 °C.
For the compound `O=S(=O)(F)CCCCCCCc1ccc(OCc2ccccc2)cc1` [Compound 13.1, 7-(4-Benzyloxy-phenyl)-heptanesulfonyl fluoride], the melting point was 35 to 38 °C.
The value for `O=C(CCCCCCOc1ccc(O)cc1)C(F)(F)F` [Compound 24.4, 1,1,1-Trifluoro-8-[4-(hydroxy)phenoxy]-2-octanone] was 61 to 62 °C; that for `O=C(CCCOc1ccccc1OCc1ccccc1)C(F)(F)F` [Compound 23.8, 1,1,1-Trifluoro-5-[2-(Benzyloxy)phenoxy]-2-pentanone] was 50 to 51 °C; that for `O=C(CCCCOc1ccc(O)cc1)C(F)(F)F` [Compound 24.2, 1,1,1-Trifluoro-6-[4-(hydroxy)phenoxy]-2-hexanone] was 63 to 64 °C.
